The source of these data is US12320793B2, “Analysis method of 3-methyl-1-phenyl-2-pyrazolin-5-one active pharmaceutical ingredient, treatment for amyotrophic lateral sclerosis, inhibition of progression of amyotrophic lateral sclerosis, and method of producing medicament containing 3-methyl-1-phenyl-2-pyrazolin-5-one active pharmaceutical …” (MITSUBISHI TANABE PHARMA CORPORATION, priority 2018, dated 2025).

Each structure is given as a SMILES string. “Also recorded” adds a separate entry of the source.

Common to all, as to type: physicochemical
Series [1] is described as follows: Solubility of edaravone active pharmaceutical ingredient (EDVP) in liquids for dissolution.
Series [2] is described as follows: Stability in solutions of 0.1 mol/L hydrochloric acid/methanol (5:5) mixture by HPLC (Example 3). Conditions: 0.1 mol/L hydrochloric acid/methanol (5:5) compared with hydrochloric acid/acetonitrile (7:3) of Example 1. The source says: The stability of phenylhydrazine and/or 3-methyl-1-phenyl-2-pyrazolin-5-one in a solution was investigated provided that an organic solvent in a liquid for dissolution was changed from acetonitrile to methanol.
In accordance with the conditions of Example 1 other than the liquids for dissolution, the stability of phenylhydrazine and/or 3-methyl-1-phenyl-2-pyrazolin-5-one in the solutions was investigated.
Therefore, 0.1 mol/L hydrochloric acid/methanol (5:5) mixture was used to prepare the addition sample solution (edaravone active pharmaceutical ingredient: 0.10111 g, phenylhydrazine: 5 μL), the standard solution (phenylhydrazine hydrochloride: 13.154 mg), and the sample solution (edaravone active pharmaceutical ingredient: 0.10275 g), and the stability of the solutions was investigated.
The results of the stability study of phenylhydrazine in the solution of 0.1 mol/L hydrochloric acid/methanol (5:5) mixture are shown in Table 7 and FIG. 7.

Series [3] is described as follows: Decomposition during storage of phenylhydrazine hydrochloride versus phenylhydrazine as standard substance (Test Example 1). The following applies: compared with phenylhydrazine.
A short description of series [4]: Solubility of edaravone active pharmaceutical ingredient (EDVP) in liquids for dissolution. The method, then:
The following liquids for dissolution (a) to (f) were used to prepare sample solutions, and the dissolution states of the edaravone active pharmaceutical ingredient in those solutions were investigated. Then, a liquid for dissolution that enabled to dissolve the edaravone active pharmaceutical ingredient was used to prepare a solution of phenylhydrazine, and the solution was measured using HPLC to check the peak shape of phenylhydrazine.
• (a) 0.1 mol/L hydrochloric acid test liquid • (b) 0.1 mol/L hydrochloric acid/acetonitrile (8:2) mixture • (c) 0.1 mol/L hydrochloric acid/acetonitrile (6:4) mixture • (d) 0.1 mol/L hydrochloric acid/acetonitrile (4:6) mixture • (e) 0.1 mol/L hydrochloric acid/acetonitrile (2:8) mixture • (f) 1 mol/L hydrochloric acid/acetonitrile (6:4) mixture Preparation of Sample Solutions
The edaravone active pharmaceutical ingredient weighed to about 0.10 g was dissolved in liquids for dissolution (a) to (f), and the solutions were adjusted exactly to 10 mLs to provide sample solutions.
Sample solutions were prepared with the following three liquids for dissolution. • 1. 0.1 mol/L hydrochloric acid/methanol (7:3) mixture • 2. 0.1 mol/L hydrochloric acid/methanol (6:4) mixture • 3. […]
The source holds these as a separate data set.

With `NNc1ccccc1` [phenylhydrazine], the dissolution of phenylhydrazine entry in series [1] (0.1 mol/L hydrochloric acid/acetonitrile mixture (volume ratio 7:3)) was “dissolve completely”. Moreover, the “decomposition of phenylhydrazine in the solution” value in series [2] was “tended to be faster decomposed”.

Turning to `Cl.NNc1ccccc1` [phenylhydrazine hydrochloride], the decomposition during storage entry in series [3] was “less likely to decompose during storage”.

Regarding `CC1=NN(c2ccccc2)C(=O)C1` [EDVP, 3-methyl-1-phenyl-2-pyrazolin-5-one], the “solubility of EDVP” value is on record as “soluble; also recorded: dissolve completely” in series [1] ((g) 0.1 mol/L hydrochloric acid/acetonitrile (7:3) mixture, listed as edaravone active pharmaceutical ingredient); “insoluble” in series [4] ((a) 0.1 mol/L hydrochloric acid test liquid, about 0.10 g to 10 mL); “insoluble” in series [4] ((b) 0.1 mol/L hydrochloric acid/acetonitrile (8:2) mixture, about 0.10 g to 10 mL); “soluble” in series [4] ((c) 0.1 mol/L hydrochloric acid/acetonitrile (6:4) mixture, about 0.10 g to 10 mL); “soluble” in series [4] ((d) 0.1 mol/L hydrochloric acid/acetonitrile (4:6) mixture, about 0.10 g to 10 mL); “soluble” in series [4] ((e) 0.1 mol/L hydrochloric acid/acetonitrile (2:8) mixture, about 0.10 g to 10 mL). For the same molecule, the “solubility of EDVP” value in series [4] ((f) 1 mol/L hydrochloric acid/acetonitrile (6:4) mixture, about 0.10 g to 10 mL) is listed as “soluble”; in series [4] (liquid for dissolution 3: 0.1 mol/L hydrochloric acid/methanol (5:5) mixture), “soluble”.
